Experimental data published in PMC9611726, “Synthesis, Characterization and Biological Investigation of New N-Modified Spinorphin Analogs” (Pharmaceuticals, 2022).
Where a SMILES comes first, the peptide text is derived from it. [ ]: non-standard residue; d: D form. The star is where a group is joined. X1 = CCN(CC)c1ccc2c(c1)Oc1cc(N(CC)CC)ccc1C2c1ccccc1C(=O)*; Ac6c = NC1(C(=O)O)CCCCC1; Ac5c = NC1(C(=O)O)CCCC1

Experiments:
[1] = Partition coefficient, shake-flask method, 1-octanol/phosphate buffer; type: physicochemical; settings: shake-flask 1-octanol/phosphate buffer (NaH2PO4/Na2HPO4), pH 7.41 ± 0.01, 25 °C, system stirred 12 h, absorbance and emission read-out, standard additions
Excerpt: The effectiveness of biomolecules is mainly due to specific structural and physicochemical properties. In principle, the properties of peptides/proteins are very diverse and directly related to their bioactivity. […] With the manifestation of hydrophilic properties, the occurrence of a hydration process is possible; swelling, increasing their mass and volume, while it is possible to partially limit the solubility of the molecule, in which case the peptide molecule becomes more unstable. At the isoelectric point, peptides have the least ability to bind water, i.e., to hydrate; the hydration shell around the peptide molecules breaks down so that they combine to form, for example, aggregates. When the pH of the medium changes, the peptide macromolecule is charged, and its hydration capacity changes. […] Due to the obtained values, the studied compounds can be arranged in the following sequence from hydrophilic to hydrophobic (lipophilic): Rh-S > Rh-S5 > Rh-S6. This corresponds to the data from the morphology of the compound, where an analogous order of increasing porosity/hydrophilicity was found (Figure 3). It can be seen that the replacement of natural proline with unnatural steric restricted amino acids such as 1-aminocyclopentanecarboxylic acid (Ac5c) and 1-aminocyclohexanecarboxylic acid (Ac6c) (neuropeptides Rh-S5 and Rh-S6) leads to an increase in lipophilicity, which would assist passage through the brain barrier and increase the efficiency of the molecule. […]
The partition coefficients of the spinorphin-rhodamine derivatives were determined in a 1-octanol/phosphate buffer system (NaH2PO4/Na2HPO4, pH 7.41 ± 0.01). […] After separation, the absorbance and emission of the solutions of the two phases were measured and the amount of dissolved analyte was determined by the method of standard additions. […] The partition coefficient was calculated by the following equation: P = C^oct/buf/C^buf/oct, where C^oct/buf and C^buf/oct are the molar concentrations of the solute in the mutually saturated phases of 1-octanol and buffer.

Candida albicans = test: Antifungal activity test, paper disc diffusion; type: cell-based; settings: C. albicans, Sabouraud Agar, 20 μL of 50 mg/mL, 24 h
Description: Tests were carried out on the Candida albicans fungus. The concentration of the extract tested was 50 mg/mL. The culture of each test fungus was taken to be tilted using an asepticose needle and rejuvenated in a liquid medium. In each medium, there is a spore density of […]. The prepared medium Sabouraud Agar (SA) in a petri dish with each culture was scratched on the top, then placed on the paper disc (paper disc), and then a peptide sample of 20 μL was placed on the paper disc. It was further incubated for 24 h and the resistance zone formed measured.

Compound | logD [1] | antifungal activity, diameter of the inhibitory zone (in words) (Candida albicans)
CCN(CC)c1ccc2c(c1)Oc1cc(N(CC)CC)ccc1C2c1ccccc1C(=O)N[C@@H](CC(C)C)C(=O)N[C@H](C(=O)N[C@H](C(=O)N[C@@H](Cc1ccc(O)cc1)C(=O)NC1(C(=O)N[C@@H](Cc2c[nH]c3ccccc23)C(=O)N[C@H](C(N)=O)[C@@H](C)O)CCCCC1)C(C)C)C(C)C [Rh-S6, rhodamineB-Leu-Val-Val-Tyr-Ac6c-Trp-Thr-NH2] (X1-LVVY[Ac6c]WT-NH2) | -0.197 | slightly higher than the negative control
CCN(CC)c1ccc2c(c1)Oc1cc(N(CC)CC)ccc1C2c1ccccc1C(=O)N[C@@H](CC(C)C)C(=O)N[C@H](C(=O)N[C@H](C(=O)N[C@@H](Cc1ccc(O)cc1)C(=O)N1CCC[C@H]1C(=O)N[C@@H](Cc1c[nH]c2ccccc12)C(=O)N[C@H](C(N)=O)[C@@H](C)O)C(C)C)C(C)C [Rh-S, rhodamineB-Leu-Val-Val-Tyr-Pro-Trp-Thr-NH2] (X1-LVVYPWT-NH2) | 0.54 | slightly higher than the negative control
CCN(CC)c1ccc2c(c1)Oc1cc(N(CC)CC)ccc1C2c1ccccc1C(=O)N[C@@H](CC(C)C)C(=O)N[C@H](C(=O)N[C@H](C(=O)N[C@@H](Cc1ccc(O)cc1)C(=O)NC1(C(=O)N[C@@H](Cc2c[nH]c3ccccc23)C(=O)N[C@H](C(N)=O)[C@@H](C)O)CCCC1)C(C)C)C(C)C [Rh-S5, rhodamineB-Leu-Val-Val-Tyr-Ac5c-Trp-Thr-NH2] (X1-LVVY[Ac5c]WT-NH2) | -0.168 | slightly higher than the negative control
